This is an account of results in US20260242393A1, “Preparation Method for and Use of Dihydrothienopyrimidine Derivative” (Innovstone Therapeutics Limited, priority 2023, published 2026).

Read-outs that look alike come from different tables or passages of the source.

The target of one data set is T1, PDE4B2 (Homo sapiens, UniProt Q07343).
T1 construct: purchased BPS bioscience
The experiment in a line: In vitro PDE4B2 enzyme inhibitory activity (AMP-Glo). The data set is classed as biochemical.

Data set [1] is described as follows: Pharmacokinetic assay in mice, plasma concentration by LC-MS/MS. The data set is classed as in vivo, CD-1 male mice. As to conditions: male, CD-1, mouse. The procedure: Assay 2: Pharmacokinetic Assay by Using LC-MS/MS to Determine the Compound Concentration in Mice
Assay principle: LC-MS/MS was used to determine the drug concentration of the target drug in plasma at different times, and to plot the pharmacokinetic curve of the target compound in vivo.
An accurately weighed amount of the test compound was dissolved in 5% DMSO (INNOCHEM, INBZZHCAE) by vortex mixing. Subsequently, 10% Solutol (BASF, 75389809T0) was added and homogenized by vortexing.
Finally, 85% saline (Fengyuan, 220505102) was incorporated with vortex mixing to achieve dosing formulations at 0.4 mg/mL and 1.0 mg/mL.
The mice were sourced from CD-1 male mice (JH Laboratory Animal Co. LTD), with three mice for each group.
The mice were administered with 2 mg/kg intravenously (IV) or 10 mg/kg by oral gavage (PO). The blood samples were collected at 5 min (IV group only), 15 min, 30 min, 1 h, 2 h, 4h, 8h, and 24h (PO group only) after administration.
Approximately 30 μL blood samples were collected at each time point and placed into anticoagulant tubes containing EDTA-K2 anticoagulant. Plasma was obtained by centrifugation within 30 minutes. Whole blood samples before centrifugation were placed on wet ice. For each test compound, 42 plasma samples were collected.
All collected plasma samples were stored on dry ice or in a freezer until analysis. The drug concentration was determined using a Triple-quadrupole MS system (SCIEX), including standard curve and quality control preparation, and sample preparation.
Standard curve and quality control preparation: a working solution was prepared by ACN:H2O (1:1) dilution, and 3 μL of the above standard curve and quality control working solution was added to 57 μL of blank plasma.
Sample preparation: 7 μL of plasma sample was added to 70 μL of internal standard solution (Propranolol, Tolbutamide, Glipizide, Osalmid, each 200 ng/mL in ACN). The mixture was mixed for 5 minutes and centrifuged at 4000 rpm for 10 minutes. 50 μL of supernatant was taken and transferred to a new plate containing 200 μL ultrapure water for sample analysis.
Chromatographic conditions were optimized for each sample, regarding mobile phase composition, elution gradient conditions, flow rate, retention time, etc. The chromatographic column was Waters Acquity UPLC HSS T3 1.8 μm, 2.1×50 mm. The injection volume was 2 μL.
An electrospray ionization source was used in mass spectrometry. In the positive ion detection mode, the multi-channel reaction monitoring (MRM) mode was selected for secondary mass spectrometry analysis.
Based on the drug concentration-time data, pharmacokinetic parameters were calculated using WinNonlin 8.2 software according to a non-compartmental model, including peak concentration Cmax, peak time Tmax, area under the drug-time curve AUC, and elimination half-life t1/2. The AUC was calculated using the linear trapezoidal method (linear up log down).

Where [2] appears, read: PDE4B2 enzyme inhibition, read-out: PDE4B2 IC50.
The mark [3] stands for this setting: read-out: IC50 values of PDE4B2 enzyme inhibition.

T1 sequence (Q07343 1-564 isoform Q07343-2): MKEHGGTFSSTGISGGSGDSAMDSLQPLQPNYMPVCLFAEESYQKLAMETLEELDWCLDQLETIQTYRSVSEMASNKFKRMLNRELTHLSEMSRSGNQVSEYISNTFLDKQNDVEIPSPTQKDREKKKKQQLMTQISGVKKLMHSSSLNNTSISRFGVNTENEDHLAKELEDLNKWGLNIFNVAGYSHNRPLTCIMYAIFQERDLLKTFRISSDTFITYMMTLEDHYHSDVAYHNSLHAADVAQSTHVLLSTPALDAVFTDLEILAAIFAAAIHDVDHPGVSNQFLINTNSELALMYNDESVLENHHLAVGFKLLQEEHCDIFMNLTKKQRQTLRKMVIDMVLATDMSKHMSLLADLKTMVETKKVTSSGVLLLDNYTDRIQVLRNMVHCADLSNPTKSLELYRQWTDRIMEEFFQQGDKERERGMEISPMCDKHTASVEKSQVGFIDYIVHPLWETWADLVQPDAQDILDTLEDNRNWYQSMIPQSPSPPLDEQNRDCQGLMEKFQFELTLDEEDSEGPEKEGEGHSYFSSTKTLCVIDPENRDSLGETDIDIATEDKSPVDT
Experimental for PDE4B2: 2.1.1 Preparing stock solutions of compounds in DMSO: Compound powders were dissolved in 100% DMSO to produce 10 mM stock solutions, and oscillated in a shaker until the compounds were completely dissolved.
2.1.3 Preparing working stock solutions: a) A solution of Roflumilast (reference compound) in DMSO was diluted to 60 μM, and then serially diluted 4-fold into 10 concentration gradients. B) The solutions of the test compounds in DMSO were diluted to 200 μM, and then serially diluted 3-fold. C) A 200× positive control (60 μM Roflumilast) and a 200× vehicle control (100% DMSO) were prepared. D) The assay plate was centrifuged at 1000 rpm for 1 minute.
(1) 20 nL of compound dilution solutions were transferred with Echo 550 into each well of the assay plate.
(2) The assay plate was sealed and centrifuged at 1000 rpm for 1 minute.
(3) 2×PDE4B2/PDE4D2 was prepared in an ice-cold PDE assay buffer.
(4) 2 μL of 2×PDE4B2/PDE4D2 was added to each well of the assay plate prepared in step 2.
(5) The assay plate was sealed and allowed to equilibrate at room temperature for 10 minutes.
(6) 2× Cyclic-3′,5′-AMP was prepared in a PDE assay buffer.
7) 2 μL of 2× Cyclic-3′,5′-AMP (prepared in step 6) was added to each well of the assay plate (prepared in step 5) to initiate the reaction. The plate was incubated at room temperature for 60 minutes.
8) 4 μL AMP-Glo Reagent I was added, and the plate was incubated at room temperature for 60 minutes.
9) 8 μL AMP detection reagent was added. The plate was incubated at room temperature for 60 minutes.
10) The RLU signal was read on an Envision 2105 plate reader.

For the compound `[O-][S+]1CCc2nc(N3Cc4ccc(Cl)cc4C3)nc(NC3(CO)CCC3)c21` (racemic) [Compound 25, (R/S)-2-(5-chloroisoindolin-2-yl)-4-((1-(hydroxymethyl)cyclobutyl)amino)-6,7-dihydrothieno[3,2-d]pyrimidine 5-oxide], the 50% inhibitory concentration (IC50) at PDE4B2 (setting [2]) was in the range of 2 to 5 nM. In data set [1] (IV, 2 mg/kg), the area under the curve AUC(0-inf) is 17600 ng·h/mL, the clearance was 2.4 mL/min/kg and the half-life is 5.01 h. For the same compound, in data set [1] (PO, 10 mg/kg), the AUC(0-inf) is 23100 ng·h/mL, the Cmax turned out to be 5950 ng/mL and the Tmax came out at 1.33 h.

As for `[O-][S+]1CCc2nc(N3Cc4ccc(OC(F)F)cc4C3)nc(NC3(CO)CCC3)c21` (racemic) [Compound 87, (R/S)-2-(5-(difluoromethoxy)isoindolin-2-yl)-4-((1-(hydroxymethyl)cyclobutyl)amino)-6,7-dihydrothieno[3,2-d]pyrimidine 5-oxide], on PDE4B2 (setting [2]), the half-maximal inhibitory concentration (IC50) fell in the range of 2 to 5 nM.

`COC1(c2ccc(Cl)cc2)CN(c2nc3c(c(NC4CCOCC4)n2)[S+]([O-])CC3)C1` (racemic) [Compound 88, (R/S)-2-(3-(4-chlorophenyl)-3-methoxyazetidin-1-yl)-4-((tetrahydro-2H-pyran-4-yl)amino)-6,7-dihydrothieno[3,2-d]pyrimidine 5-oxide]: the IC50 at PDE4B2 (setting [2]) was ≤ 2 nM; at PDE4B2 (setting [3]), < 1 nM.

As for `[O-][S+]1CCc2nc(N3Cc4ccc(C(F)F)cc4C3)nc(NC3(CO)CCC3)c21` (racemic) [Compound 91, (R/S)-2-(5-(difluoromethyl)isoindolin-2-yl)-4-((1-(hydroxymethyl)cyclobutyl)amino)-6,7-dihydrothieno[3,2-d]pyrimidine 5-oxide], at PDE4B2 (setting [2]), the IC50 lay in the range of 2 to 5 nM.

Turning to `[2H]C([2H])([2H])OC1(c2ccc(Cl)cc2)CN(c2nc3c(c(NC4(CO)CCC4)n2)[S+]([O-])CC3)C1` (racemic) [Compound 92, (R/S)-2-(3-(4-chlorophenyl)-3-(methoxy-d3)azetidin-1-yl)-4-((1-(hydroxymethyl)cyclobutyl)amino)-6,7-dihydrothieno[3,2-d]pyrimidine 5-oxide], the concentration for half-maximal inhibition (IC50) at PDE4B2 (setting [2]) was ≤ 2 nM; at PDE4B2 (setting [3]), < 1 nM.

As for `[2H]C([2H])([2H])OC1(c2ccc(Cl)cc2)CN(c2nc3c(c(NC4CCOCC4)n2)[S+]([O-])CC3)C1` (racemic) [Compound 94, (R/S)-2-(3-(4-chlorophenyl)-3-(methoxy-d3)azetidin-1-yl)-4-((tetrahydro-2H-pyran-4-yl)amino)-6,7-dihydrothieno[3,2-d]pyrimidine 5-oxide], the IC50 at PDE4B2 (setting [2]) was ≤ 2 nM; on PDE4B2 (setting [3]), < 1 nM.

Take `COc1ccc(C2(OC)CN(c3nc4c(c(NC5(CO)CCC5)n3)[S+]([O-])CC4)C2)cc1` (racemic) [Compound 100, (R/S)-4-((1-(hydroxymethyl)cyclobutyl)amino)-2-(3-methoxy-3-(4-methoxyphenyl)azetidin-1-yl)-6,7-dihydrothieno[3,2-d]pyrimidine 5-oxide]: the IC50 on PDE4B2 (setting [2]) is ≤ 2 nM; at PDE4B2 (setting [3]), < 1 nM.

Take `COC1(c2ccc(OC(F)F)cc2)CN(c2nc3c(c(NC4(CO)CCC4)n2)[S+]([O-])CC3)C1` (racemic) [Compound 105, (R/S)-2-(3-(4-(difluoromethoxy)phenyl)-3-methoxyazetidin-1-yl)-4-((1-(hydroxymethyl)cyclobutyl)amino)-6,7-dihydrothieno[3,2-d]pyrimidine 5-oxide]: the IC50 on PDE4B2 (setting [2]) is ≤ 2 nM; at PDE4B2 (setting [3]), < 1 nM.

In the case of `COC1(c2ccc(OCC3CC3)cc2)CN(c2nc3c(c(NC4(CO)CCC4)n2)[S+]([O-])CC3)C1` (racemic) [Compound 106, (R/S)-2-(3-(4-(cyclopropylmethoxy)phenyl)-3-methoxyazetidin-1-yl)-4-((1-(hydroxymethyl)cyclobutyl)amino)-6,7-dihydrothieno[3,2-d]pyrimidine 5-oxide], at PDE4B2 (setting [2]), the IC50 is ≤ 2 nM.

`COC1(c2ccc(N3CCCC3)cc2)CN(c2nc3c(c(NC4(CO)CCC4)n2)[S+]([O-])CC3)C1` (racemic) [Compound 107, (R/S)-4-((1-(hydroxymethyl)cyclobutyl)amino)-2-(3-methoxy-3-(4-(pyrrolidin-1-yl)phenyl)azetidin-1-yl)-6,7-dihydrothieno[3,2-d]pyrimidine 5-oxide]: the half-maximal inhibitory concentration (IC50) at PDE4B2 (setting [2]) was ≤ 2 nM; on PDE4B2 (setting [3]), < 1 nM.

As for `COc1ccc(C2(OC)CN(c3nc4c(c(NC5CCOCC5)n3)[S+]([O-])CC4)C2)cc1` (racemic) [Compound 108, (R/S)-2-(3-methoxy-3-(4-methoxyphenyl)azetidin-1-yl)-4-((tetrahydro-2H-pyran-4-yl)amino)-6,7-dihydrothieno[3,2-d]pyrimidine 5-oxide], the IC50 is ≤ 2 nM at PDE4B2 (setting [2]) and < 1 nM at PDE4B2 (setting [3]).

`COC1(c2ccc(N(C)C)cc2)CN(c2nc3c(c(NC4(CO)CCC4)n2)[S+]([O-])CC3)C1` (racemic) [Compound 109, (R/S)-2-(3-(4-(dimethylamino)phenyl)-3-methoxyazetidin-1-yl)-4-((1-(hydroxymethyl)cyclobutyl)amino)-6,7-dihydrothieno[3,2-d]pyrimidine 5-oxide]: the IC50 on PDE4B2 (setting [2]) was ≤ 2 nM; at PDE4B2 (setting [3]), < 1 nM.

As for `CNc1ccc(C2(OC)CN(c3nc4c(c(NC5(CO)CCC5)n3)[S+]([O-])CC4)C2)cc1` (racemic) [Compound 112, (R/S)-4-((1-(hydroxymethyl)cyclobutyl)amino)-2-(3-methoxy-3-(4-(methylamino)phenyl)azetidin-1-yl)-6,7-dihydrothieno[3,2-d]pyrimidine 5-oxide], the IC50 on PDE4B2 (setting [2]) was ≤ 2 nM.

As to `[O-][S+]1CCc2nc(N3CCC(c4ncc(Cl)cn4)CC3)nc(NC3(CO)CCC3)c21` (stereo not shown) [Control 1, reference compound], the half-maximal inhibitory concentration (IC50) on PDE4B2 (setting [2]) was 20 to 50 nM. Further, in data set [1] (IV, 2 mg/kg), the AUC(0-inf) is 2900 ng·h/mL, the clearance was determined as 11.8 mL/min/kg and the half-life is 1.57 h. For the same compound, in data set [1] (PO, 10 mg/kg), the AUC(0-inf) was 12100 ng·h/mL, the Cmax turned out to be 2250 ng/mL and the Tmax turned out to be 0.5 h.
